Measurements from ChEMBL document CHEMBL3272121, “Hypolipidemic analogues of ethyl 4-benzyloxybenzoate” (J Med Chem, 1977).

Experiments:
[1] = system: Rattus norvegicus; test: Hypolipidemic activity in CFY Sprague-Dawley rat assessed as serum cholesterol level at 0.5% dietary level administered for 7 days relative to control; format: functional
[2] = system: Rattus norvegicus; test: Hypolipidemic activity in CFY Sprague-Dawley rat assessed as liver lipid per gm of liver at 0.5% dietary level administered for 7 days relative to control; format: functional
[3] = system: Rattus norvegicus; test: Hypolipidemic activity in CFY Sprague-Dawley rat assessed as liver lipid per gm of liver at 0.25% dietary level administered for 7 days relative to control; format: functional
[4] = system: Rattus norvegicus; test: Toxicity in CFY Sprague-Dawley rat assessed as body weight gain at 0.5% dietary level administered for 7 days relative to control; format: organism-based; settings: in vivo, po, 168 h
[5] = system: Rattus norvegicus; test: Toxicity in CFY Sprague-Dawley rat assessed as relative liver weight at 0.5% dietary level administered for 7 days relative to control; format: organism-based; settings: in vivo, po, 168 h
[6] = system: Liver; test: Inhibition of fatty acid biosynthesis from [1-14C]acetate in rat liver slices at 1 X 10^-4 M relative to control; format: functional
[7] = system: Rattus norvegicus; test: Hypolipidemic activity in CFY Sprague-Dawley rat assessed as serum triglyceride level at 0.5% dietary level administered for 7 days relative to control; format: functional
[8] = system: Liver; test: Inhibition of cholesterol biosynthesis from [1-14C]acetate in rat liver slices at 1 X 10^-4 M relative to control; format: functional
[9] = system: Rattus norvegicus; test: Toxicity in CFY Sprague-Dawley rat assessed as relative liver weight at 0.25% dietary level administered for 7 days relative to control; format: organism-based; settings: in vivo, po, 168 h
[10] = system: Rattus norvegicus; test: Hypolipidemic activity in CFY Sprague-Dawley rat assessed as serum cholesterol level at 0.25% dietary level administered for 7 days relative to control; format: functional
[11] = system: Rattus norvegicus; test: Hypolipidemic activity in CFY Sprague-Dawley rat assessed as serum triglyceride level at 0.25% dietary level administered for 7 days relative to control; format: functional
[12] = system: Rattus norvegicus; test: Toxicity in CFY Sprague-Dawley rat assessed as body weight gain at 0.25% dietary level administered for 7 days relative to control; format: organism-based; settings: in vivo, po, 168 h
[13] = system: Rattus norvegicus; test: Toxicity in CFY Sprague-Dawley rat assessed as relative liver weight at 1% dietary level administered for 7 days relative to control; format: organism-based; settings: in vivo, po, 168 h
[14] = system: Rattus norvegicus; test: Hypolipidemic activity in CFY Sprague-Dawley rat assessed as liver lipid per gm of liver at 1% dietary level administered for 7 days relative to control; format: functional
[15] = system: Liver; test: Inhibition of fatty acid biosynthesis from [1-14C]acetate in rat liver slices at 5 X 10^-4 M relative to control; format: functional
[16] = system: Rattus norvegicus; test: Hypolipidemic activity in CFY Sprague-Dawley rat assessed as liver lipid per gm of liver at 0.2% dietary level administered for 7 days relative to control; format: functional
[17] = system: Rattus norvegicus; test: Toxicity in CFY Sprague-Dawley rat assessed as relative liver weight at 0.2% dietary level administered for 7 days relative to control; format: organism-based; settings: in vivo, po, 168 h
[18] = system: Rattus norvegicus; test: Hypolipidemic activity in CFY Sprague-Dawley rat assessed as serum cholesterol level at 0.1% dietary level administered for 7 days relative to control; format: functional
[19] = system: Rattus norvegicus; test: Hypolipidemic activity in CFY Sprague-Dawley rat assessed as serum triglyceride level at 0.1% dietary level administered for 7 days relative to control; format: functional
[20] = system: Rattus norvegicus; test: Hypolipidemic activity in CFY Sprague-Dawley rat assessed as serum cholesterol level at 0.2% dietary level administered for 7 days relative to control; format: functional
[21] = system: Rattus norvegicus; test: Hypolipidemic activity in CFY Sprague-Dawley rat assessed as serum cholesterol level at 1% dietary level administered for 7 days relative to control; format: functional
[22] = system: Rattus norvegicus; test: Toxicity in CFY Sprague-Dawley rat assessed as body weight gain at 1% dietary level administered for 7 days relative to control; format: organism-based; settings: in vivo, po, 168 h
[23] = system: Rattus norvegicus; test: Toxicity in CFY Sprague-Dawley rat assessed as body weight gain at 0.2% dietary level administered for 7 days relative to control; format: organism-based; settings: in vivo, po, 168 h
[24] = system: Rattus norvegicus; test: Toxicity in CFY Sprague-Dawley rat assessed as relative liver weight at 0.1% dietary level administered for 7 days relative to control; format: organism-based; settings: in vivo, po, 168 h
[25] = system: Rattus norvegicus; test: Toxicity in CFY Sprague-Dawley rat assessed as body weight gain at 0.1% dietary level administered for 7 days relative to control; format: organism-based; settings: in vivo, po, 168 h
[26] = system: Liver; test: Inhibition of cholesterol biosynthesis from [1-14C]acetate in rat liver slices at […] relative to control; format: functional
[27] = system: Rattus norvegicus; test: Hypolipidemic activity in CFY Sprague-Dawley rat assessed as liver lipid per gm of liver at 0.1% dietary level administered for 7 days relative to control; format: functional
[28] = system: Rattus norvegicus; test: Hypolipidemic activity in CFY Sprague-Dawley rat assessed as serum triglyceride level at 0.2% dietary level administered for 7 days relative to control; format: functional
[29] = system: Rattus norvegicus; test: Hypolipidemic activity in CFY Sprague-Dawley rat assessed as serum triglyceride level at 1% dietary level administered for 7 days relative to control; format: functional
[30] = system: Liver; test: Inhibition of cholesterol biosynthesis from [1-14C]acetate in rat liver slices at 1 X 10^-3 M relative to control; format: functional
[31] = system: Liver; test: Inhibition of fatty acid biosynthesis from [1-14C]acetate in rat liver slices at 1 X 10^-3 M relative to control; format: functional

CCOC(=O)CCc1ccc(OCc2ccc(F)cc2)cc1
Activity [1]: -19% | Activity [2]: 8% | Activity [3]: 7% | Activity [4]: 4% | Activity [5]: 15% | inhibition at 100 µM [6]: 82% | Activity [7]: -59% | inhibition at 100 µM [8]: 87% | Activity [9]: -5% | Activity [10]: -20% | Activity [11]: -43% | Activity [12]: -1%

CCOC(=O)c1ccc(OCc2ccccc2)cc1
Activity [1]: -18% | Activity [13]: 37% | Activity [2]: 10% | Activity [14]: 9% | inhibition at 500 µM [15]: 91% | Activity [16]: -3% | Activity [17]: 8% | Activity [18]: -9% | Activity [3]: 2% | Activity [19]: -14% | Activity [4]: -40% | Activity [5]: 22% | Activity [20]: -20% | Activity [21]: -20% | Activity [22]: -45% | Activity [23]: -8% | inhibition at 100 µM [6]: -7% | Activity [24]: 9% | Activity [7]: -41% | Activity [25]: 6% | inhibition at 100 µM [8]: 42% | inhibition at 500 µM [26]: 68% | Activity [27]: 0% | Activity [9]: 8% | Activity [10]: -17% | Activity [28]: -67% | Activity [11]: -61% | Activity [29]: -29% | Activity [12]: 1%

CCOC(=O)Cc1ccc(OCc2ccc(C)cc2)cc1
Activity [18]: -8% | Activity [3]: 5% | Activity [19]: -49% | Activity [24]: 9% | Activity [25]: 16% | Activity [27]: 0% | Activity [9]: 20% | Activity [10]: -45% | Activity [11]: -68% | Activity [12]: -18%

CCOC(=O)Cc1ccc(OCc2ccccc2OC)cc1
Activity [13]: 19% | Activity [14]: 20% | Activity [16]: 5% | Activity [17]: 8% | Activity [3]: 7% | Activity [20]: -22% | Activity [21]: -21% | Activity [22]: -16% | Activity [23]: 6% | inhibition at 100 µM [6]: 48% | inhibition at 100 µM [8]: 57% | Activity [9]: 4% | Activity [10]: -24% | Activity [28]: -64% | Activity [11]: -57% | Activity [29]: -53% | Activity [12]: 6%

CCC(C(=O)O)c1ccccc1 (stereo unspecified)
inhibition at 1000 µM [30]: 30% | inhibition at 1000 µM [31]: 7%

CCOC(=O)c1ccc(OCc2ccc(C)cc2)cc1
Activity [13]: 19% | Activity [14]: 3% | inhibition at 500 µM [15]: 47% | Activity [16]: -7% | Activity [17]: 2% | Activity [3]: 1% | Activity [20]: -17% | Activity [21]: -13% | Activity [22]: -19% | Activity [23]: 14% | inhibition at 500 µM [26]: 47% | Activity [9]: 4% | Activity [10]: -18% | Activity [28]: -42% | Activity [11]: -54% | Activity [29]: -46% | Activity [12]: -4%

CCOC(=O)c1ccc(OCc2ccc(Br)cc2)cc1
Activity [13]: 20% | Activity [14]: 4% | inhibition at 500 µM [15]: 84% | Activity [16]: -2% | Activity [17]: 8% | Activity [3]: 0% | Activity [20]: -23% | Activity [21]: -24% | Activity [22]: -8% | Activity [23]: 17% | inhibition at 500 µM [26]: 98% | Activity [9]: 10% | Activity [10]: -29% | Activity [28]: -62% | Activity [11]: -52% | Activity [29]: -39% | Activity [12]: 1%

O=C(O)c1ccc(OCc2ccccc2)cc1
Activity [13]: 50% | Activity [14]: 1% | inhibition at 500 µM [15]: 65% | Activity [16]: 8% | Activity [17]: 0% | Activity [3]: -4% | Activity [20]: -14% | Activity [21]: -24% | Activity [22]: -62% | Activity [23]: -13% | inhibition at 500 µM [26]: 92% | Activity [9]: 10% | Activity [10]: -23% | Activity [28]: -50% | Activity [11]: -65% | Activity [29]: -34% | Activity [12]: -5%
